The values below are quoted from earlier work in publication PMC4603705, “A bioinspired peptide scaffold with high antibiotic activity and low in vivo toxicity” (Scientific Reports, 2015).

Structures are written as SMILES.

The test system of the data set is P. aeruginosa. The settings on record: P. aeruginosa 40b strain characterisation; cited from earlier work.

As to `C[C@@H](O)[C@H]1C(=O)N2C(C(=O)O)=C(SCCN=CN)C[C@H]12` [Imipenem], the “MIC, resistance profile of P. aeruginosa 40b” value is given as “imipenem (MIC 32 mg/L)”.
